Measurements published in ChEMBL document CHEMBL4371076 (J Med Chem, 2019).
Active and inactive are the calls of the source.

Legend:
Mus musculus [1] = assay: Analgesic activity in CD1 mouse model of formalin-induced nociception assessed as reduction in formalin-evoked paw flinching/licking response during first phase at 3 to 10 mg/kg, ip pretreated for 30 mins followed by formalin treatment and measured during first 5 mins post formalin injection; type: functional, organism-based
Mus musculus [2] = assay: Analgesic activity in CD1 mouse model of formalin-induced nociception assessed as reduction in formalin-evoked paw flinching/licking response during second phase at 30 mg/kg, ip pretreated for 30 mins followed by formalin treatment and measured during 15 to 45 mins post formalin injection; type: functional, organism-based
[3] = Plasma concentration in CD1 mouse model of formalin-induced nociception at 30 mg/kg, ip; type: ADME, organism-based; conditions: read-out: Cp, in vivo
[4] = Drug uptake in DRG neurons of CD1 mouse model of formalin-induced nociception at 30 mg/kg, ip; type: ADME, organism-based, DRG neuron; conditions: in vivo, read-out: Drug uptake
Mus musculus [5] = assay: Effect on thermal response latency in contralateral paw in CD1 mouse model of CFA-induced thermal hyperalgesia at 30 mg/kg, ip administered 72 hrs post CFA challenge and measured at 60 mins post dose by Hargreave's test; type: organism-based; conditions: in vivo, 1 h
Mus musculus [6] = assay: Antinociceptive activity in CD1 mouse model of chronic constriction injury-induced cold allodynia assessed as increase in latency in response to cold at 30 mg/kg, ip dosed 30 mins before testing starting at 5 weeks after surgery relative to control; type: functional
[7] = Plasma concentration in CD1 mouse model of chronic constriction injury-induced cold allodynia at 3 mg/kg, ip dosed at 5 weeks post surgery and measured 60 mins post dose; type: ADME, organism-based
[8] = Unbound plasma concentration in CD1 mouse model of chronic constriction injury-induced cold allodynia at 30 mg/kg, ip dosed at 5 weeks post surgery and measured 60 mins post dose; type: ADME, organism-based; conditions: in vivo, 1 h
[9] = Plasma concentration in CD1 mouse model of formalin-induced nociception at 30 mg/kg, po; type: ADME, organism-based; conditions: read-out: Cp, in vivo
[10] = Fraction unbound in rat trigeminal ganglia neuron tissue; type: ADME, tissue-based, Trigeminal ganglion
Mus musculus [11] = species on record: Mus musculus; assay: Reduction in mechanoreceptor-mediated afferent transmission in mouse sural nerve assessed as decrease in mechanically elicited afferent firing at 30 to 100 uM measured at 20 mins post dose at 1.6 to 980 mN threshold pressure; type: functional, tissue-based

concentration [3] | concentration [4] | concentration [9] | fraction unbound [10] | Activity (Mus musculus [11]) | SMILES | Activity (Mus musculus [1]) | Activity (Mus musculus [2]) | Activity (Mus musculus [5]) | Activity (Mus musculus [6]) | concentration at 1 h [7] | Cp(f) [8]
59 µM | 2.72 µM | – | – | – | CC(C)COc1ncc(-c2cn(C)c3cc(C(=O)NS(C)(=O)=O)ccc23)cc1Cl | inactive | Active | Non-Toxic | 25% | 3.3 µM | 0.136 µM
– | – | 44 µM | 0.045 | inactive | CC(C)COc1ccc(-c2cn(C)c3cc(C(=O)NS(C)(=O)=O)c(F)cc23)cn1 | – | – | – | – | – | –
